This is an account of results in patent publication US8952162B2, “Triazolopyridines as phosphodiesterase inhibitors for treatment of dermal diseases” (Leo Pharma A/S, priority 2008, dated 2015).

The assay deals with Human recombinant PDE4 (Genbank accession no NM—006203) (Homo sapiens, UniProt Q08499). Briefly: PDE4 assay (SPA, cAMP cleavage). The format is biochemical. The conditions noted are these: read-out: PDE4 IC50 range. The protocol:
At the end of the incubation, the cleavage of the substrate was evaluated by the binding of the AMP product to SPA beads, which generate chemoluminescence when bound to the radioactive tracer. The AMP product inhibited the binding of the radioactive tracer to the beads, and the luminescent signal was competed.

Where [1] appears, read: Example 52, human recombinant PDE4, 1 hour incubation, cAMP 1×10^-5M, test compound up to 10 μM.
The mark [2] stands for this setting: Example 53, PDE4 assay as in example 52.

Where two headings read alike, the source gives them in different places. Where only a bound is given, the exact number is not on record here.

Sequence of Human recombinant PDE4 (Genbank accession no NM—006203) (Q08499 1-673 isoform Q08499-2): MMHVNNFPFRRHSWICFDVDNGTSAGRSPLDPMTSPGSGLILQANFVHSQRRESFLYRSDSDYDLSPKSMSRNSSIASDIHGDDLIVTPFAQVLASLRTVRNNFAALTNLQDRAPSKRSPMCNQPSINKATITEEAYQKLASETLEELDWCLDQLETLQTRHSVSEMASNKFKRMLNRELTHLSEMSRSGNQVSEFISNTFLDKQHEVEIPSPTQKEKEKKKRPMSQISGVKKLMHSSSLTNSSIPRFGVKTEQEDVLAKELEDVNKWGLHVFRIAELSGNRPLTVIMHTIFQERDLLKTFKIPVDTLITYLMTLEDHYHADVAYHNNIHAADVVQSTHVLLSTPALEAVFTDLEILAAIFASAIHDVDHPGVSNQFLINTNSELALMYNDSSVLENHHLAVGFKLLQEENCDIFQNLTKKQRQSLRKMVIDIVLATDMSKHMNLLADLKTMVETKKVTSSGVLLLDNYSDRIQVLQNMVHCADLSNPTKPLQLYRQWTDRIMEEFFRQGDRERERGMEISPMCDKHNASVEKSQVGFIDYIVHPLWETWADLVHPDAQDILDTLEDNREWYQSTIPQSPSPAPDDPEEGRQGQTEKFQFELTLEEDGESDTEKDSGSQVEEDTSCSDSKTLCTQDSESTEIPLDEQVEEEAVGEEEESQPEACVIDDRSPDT

One may read the IC50 as the point on the concentration scale where inhibition reaches its midpoint. Turning to `COc1ccc(N2CCCCC2)n2nc(C3CC3)nc12` [Compound 143, 2-Cyclopropyl-8-methoxy-5-piperidin-1-yl-[1,2,4]triazolo[1,5-a]pyridine], the IC50 under setting [1] was below 500 nM. `COc1ccc(-c2cncc(C#N)c2)n2nc(C3(C(=O)NCCS(C)(=O)=O)CC3)nc12` [Compound 186, 1-[5-(5-Cyano-pyridin-3-yl)-8-methoxy-[1,2,4]triazolo[1,5-a]pyridin-2-yl]-cyclopropanecarboxylic acid (2-methanesulfonyl-ethyl)-amide]: the IC50 under setting [2] was below 500 nM. As for `COc1ccc(-c2ccc(C#N)cc2)n2nc(C3(C(=O)NC4CC4)CC3)nc12` [Compound 213, 1-[5-(4-Cyano-phenyl)-8-methoxy-[1,2,4]triazolo[1,5-a]pyridin-2-yl]-cyclopropanecarboxylic acid cyclopropylamide], the IC50 under setting [2] was below 500 nM.

Regarding `COc1ccc(-c2cccc(NC(C)=O)c2)n2nc(C3CC3)nc12` [Compound 107, N-[3-(2-Cyclopropyl-8-methoxy-[1,2,4]triazolo[1,5-a]pyridin-5-yl)-phenyl]-acetamide], the IC50 under setting [1] was above 1000 nM.

For the compound `COc1ccc(-c2ccc(C#N)cc2)n2nc(C3(C(=O)NCCS(=O)(=O)N(C)C)CC3)nc12` [Compound 219, 1-[5-(4-Cyano-phenyl)-8-methoxy-[1,2,4]triazolo[1,5-a]pyridin-2-yl]-cyclopropanecarboxylic acid (2-dimethylsulfamoyl-ethyl)-amide], under setting [2], the IC50 was below 500 nM.

In the case of `COc1ccc(-c2ccc(C#N)cc2)n2nc(C3(C(=O)NCC#N)CC3)nc12` [Compound 215, 1-[5-(4-Cyano-phenyl)-8-methoxy-[1,2,4]triazolo[1,5-a]pyridin-2-yl]-cyclopropanecarboxylic acid cyanomethyl-amide], under setting [2], the IC50 was below 500 nM. With `COc1ccc(-c2cccc(NS(C)(=O)=O)c2)n2nc(C3CC3)nc12` [Compound 113, N-[3-(2-Cyclopropyl-8-methoxy-[1,2,4]triazolo[1,5-a]pyridin-5-yl)-phenyl]-methanesulfonamide], the IC50 under setting [1] was in the range of 500 to 1000 nM. On the same count and under the same terms, the value for `COc1ccc(-c2ccc(Cl)cc2Cl)n2nc(C3CC3)nc12` [Compound 127, 2-Cyclopropyl-5-(2,4-dichloro-phenyl)-8-methoxy-[1,2,4]triazolo[1,5-a]pyridine] was 500 to 1000 nM.

`COc1ccc(-c2cccc(C(C)=O)c2)n2nc(C3(C(=O)NCCS(C)(=O)=O)CC3)nc12` [Compound 226, 1-[5-(3-Acetyl-phenyl)-8-methoxy-[1,2,4]triazolo[1,5-a]pyridin-2-yl]-cyclopropanecarboxylic acid (2-methanesulfonyl-ethyl)-amide]: the IC50 under setting [2] was below 500 nM. `COc1ccc(-c2cncc(C#N)c2)n2nc(C3(COC(=O)N4CCCC4)CC3)nc12` [Compound 242, Pyrrolidine-1-carboxylic acid 1-[5-(5-cyano-pyridin-3-yl)-8-methoxy-[1,2,4]triazolo[1,5-a]pyridin-2-yl]-cyclopropylmethyl ester]: the IC50 under setting [2] was below 500 nM.

Turning to `COc1ccc(-c2ccc3c(c2)CNC3=O)n2nc(C3CC3)nc12` [Compound 171, 5-(2-Cyclopropyl-8-methoxy-[1,2,4]triazolo[1,5-a]pyridin-5-yl)-2,3-dihydro-isoindol-1-one], under setting [2], the IC50 was below 500 nM. Take `COc1ccc(-c2ccc3c(c2)CCC3=O)n2nc(C3(COC(=O)NC(C)C)CC3)nc12` [Compound 239, Isopropyl-carbamic acid 1-[8-methoxy-5-(1-oxo-indan-5-yl)-[1,2,4]triazolo[1,5-a]pyridin-2-yl]-cyclopropylmethyl ester]: the IC50 under setting [2] is below 500 nM. Take `CCCNC(=O)OCC1(c2nc3c(OC)ccc(-c4ccc5c(c4)CCC5=O)n3n2)CC1` [Compound 230, Propyl-carbamic acid 1-[8-methoxy-5-(1-oxo-indan-5-yl)-[1,2,4]triazolo[1,5-a]pyridin-2-yl]-cyclopropylmethyl ester]: under setting [2], the IC50 was below 500 nM. As to `COc1ccc(-c2ccc(S(=O)(=O)NCCO)cc2)n2nc(C3CC3)nc12` [Compound 134, 4-(2-Cyclopropyl-8-methoxy-[1,2,4]triazolo[1,5-a]pyridin-5-yl)-N-(2-hydroxy-ethyl)-benzenesulfonamide], the half-inhibitory concentration (IC50) under setting [1] is above 1000 nM.

On to `COc1ccc(-c2cccc(C#N)c2)n2nc(C3(C(=O)NCc4ccccc4)CC3)nc12` [Compound 197, 1-[5-(3-Cyano-phenyl)-8-methoxyl-[1,2,4]triazolo[1,5-a]pyridin-2-yl]-cyclopropanecarboxylic acid benzylamide], for which the IC50 under setting [2] is below 500 nM. For `COc1ccc(-c2cccc(C(C)=O)c2)n2nc(C3(C(=O)NCCS(N)(=O)=O)CC3)nc12` [Compound 225, 1-[5-(3-Acetyl-phenyl)-8-methoxy-[1,2,4]triazolo[1,5-a]pyridin-2-yl]-cyclopropanecarboxylic acid (2-sulfamoyl-ethyl)-amide], the IC50 under setting [2] is below 500 nM. Same read-out and setting: under `COc1ccc(-c2cc(F)cc(C#N)c2)n2nc(C3CC3)nc12` [Compound 164, 3-(2-Cyclopropyl-8-methoxy-[1,2,4]triazolo[1,5-a]pyridin-5-yl)-5-fluoro-benzonitrile] stands below 500 nM. Still for that read-out and setting: the value for `COc1ccc(-c2cccc(C#N)c2)n2nc(C3(C(=O)N4CCCC4)CC3)nc12` [Compound 200, 3-{8-Methoxy-2-[1-(pyrrolidine-1-carbonyl)-cyclopropyl]-[1,2,4]triazolo[1,5-a]pyridin-5-yl}-benzonitrile] was 500 to 1000 nM. Regarding `COc1ccc(-c2cccc(C#N)c2)n2nc(C3(C(=O)NCCS(N)(=O)=O)CC3)nc12` [Compound 198, 1-[5-(3-Cyano-phenyl)-8-methoxyl-[1,2,4]triazolo[1,5-a]pyridin-2-yl]-cyclopropanecarboxylic acid (2-sulfamoyl-ethyl)-amide], under setting [2], the IC50 was below 500 nM. Regarding `COc1ccc(-c2ccc(OC)c3nc(C4CC4)nn23)cc1OC` [Compound 105, 2-Cyclopropyl-5-(3,4-dimethoxy-phenyl)-8-methoxy-[1,2,4]triazolo[1,5-a]pyridine], the IC50 under setting [1] was below 500 nM.

As for `COc1ccc(-c2ccc(C(N)=O)cc2)n2nc(C3CC3)nc12` [Compound 123, 4-(2-Cyclopropyl-8-methoxy-[1,2,4]triazolo[1,5-a]pyridin-5-yl)-benzamide], the IC50 under setting [1] was below 500 nM.

`COc1ccc(-c2ccc(C#N)cc2)n2nc(C3(C(=O)NC(C)C)CC3)nc12` [Compound 209, 1-[5-(4-Cyano-phenyl)-8-methoxy-[1,2,4]triazolo[1,5-a]pyridin-2-yl]-cyclopropanecarboxylic acid isopropylamide]: the IC50 under setting [2] is below 500 nM.

On to `COc1cc(-c2ccc(OC)c3nc(C4(COC(=O)N(C)C)CC4)nn23)ccc1C#N` [Compound 231, Dimethyl-carbamic acid 1-[5-(4-cyano-3-methoxy-phenyl)-8-methoxy-[1,2,4]triazolo[1,5-a]pyridin-2-yl]-cyclopropylmethyl ester], for which the IC50 under setting [2] is below 500 nM. Consider `COc1ccc(-c2ccc(S(=O)(=O)N3CCOCC3)cc2)n2nc(C3CC3)nc12` [Compound 128, 2-Cyclopropyl-8-methoxy-5-[4-(morpholine-4-sulfonyl)-phenyl]-[1,2,4]triazolo[1,5-a]pyridine], for which, under setting [1], the IC50 is above 1000 nM. Consider `COc1ccc(-c2ccc(C#N)c(C)c2)n2nc(C3CC3)nc12` [Compound 161, 4-(2-Cyclopropyl-8-methoxyl-[1,2,4]triazolo[1,5-a]pyridin-5-yl)-2-methyl-benzonitrile], for which the IC50 under setting [2] is below 500 nM. On to `COc1ccc(-c2ccc3c(c2)CCC3=O)n2nc(C3(COC(=O)N4CCCC4)CC3)nc12` [Compound 238, Pyrrolidine-1-carboxylic acid 1-[8-methoxy-5-(1-oxo-indan-5-yl)-[1,2,4]triazolo[1,5-a]pyridin-2-yl]-cyclopropylmethyl ester], for which the IC50 under setting [2] was below 500 nM. In the case of `COc1ccc(-c2cccc(C(C)=O)c2)n2nc(C3(C(=O)NCc4ccccc4)CC3)nc12` [Compound 224, 1-[5-(3-Acetyl-phenyl)-8-methoxy-[1,2,4]triazolo[1,5-a]pyridin-2-yl]-cyclopropanecarboxylic acid benzylamide], under setting [2], the IC50 was below 500 nM. In the case of `COc1ccc(-c2cccc3c2CCC3=O)n2nc(C3(C(=O)NCc4ccccc4)CC3)nc12` [Compound 172, 1-[8-Methoxy-5-(1-oxo-indan-4-yl)-[1,2,4]triazolo[1,5-a]pyridin-2-yl]-cyclopropanecarboxylic acid benzylamide], under setting [2], the IC50 is below 500 nM.

With `COc1cc(-c2ccc(OC)c3nc(C4(C(=O)NCCS(C)(=O)=O)CC4)nn23)ccc1C#N` [Compound 177, 1-[5-(4-Cyano-3-methoxy-phenyl)-8-methoxy-[1,2,4]triazolo[1,5-a]pyridin-2-yl]-cyclopropanecarboxylic acid (2-methanesulfonyl-ethyl)-amide], under setting [2], the IC50 is below 500 nM. With `COc1ccc(-c2ccc(C#N)cc2)n2nc(C3(C(=O)NCc4ccccc4)CC3)nc12` [Compound 206, 1-[5-(4-Cyano-phenyl)-8-methoxy-[1,2,4]triazolo[1,5-a]pyridin-2-yl]-cyclopropanecarboxylic acid benzylamide], the IC50 under setting [2] was below 500 nM. On to `COc1ccc(-c2cc(C#N)cc(CO)c2)n2nc(C3CC3)nc12` [Compound 168, 3-(2-Cyclopropyl-8-methoxy-[1,2,4]triazolo[1,5-a]pyridin-5-yl)-5-hydroxymethyl-benzonitrile], for which the half-inhibitory concentration (IC50) under setting [2] is below 500 nM. With `COc1ccc(-c2cccc(C(C)=O)c2)n2nc(C3(C(=O)N4CCN(C)CC4)CC3)nc12` [Compound 222, 1-(3-{8-Methoxy-2-[1-(4-methyl-piperazine-1-carbonyl)-cyclopropyl]-[1,2,4]triazolo[1,5-a]pyridin-5-yl}-phenyl)-ethanone], under setting [2], the IC50 lay within 500 to 1000 nM. With `COCCNC(=O)C1(c2nc3c(OC)ccc(-c4cccc(C#N)c4)n3n2)CC1` [Compound 202, 1-[5-(3-Cyano-phenyl)-8-methoxy-[1,2,4]triazolo[1,5-a]pyridin-2-yl]-cyclopropanecarboxylic acid (2-methoxy-ethyl)-amide], under setting [2], the IC50 is below 500 nM.
